Values of other authors in US20080274189A1, “Organic Compounds Comprising a Glycopyrr Onium Salt” (priority 2005, published 2008).

Settings: aerosol formulation, single administration of a metered dose, asthma

For `C[N+]1(C)CCC(OC(=O)C(O)(c2ccccc2)C2CCCC2)C1.[Br-]` (racemic) [glycopyrrolate, 3-[(cyclopentyl-hydroxyphenylacetyl)oxy]-1,1-dimethylpyrrolidinium bromide], the duration of bronchodilation is listed as “up to 12 hours”.
